Measurements taken from ChEMBL document CHEMBL1201862, “PubChem BioAssay data set” (2004).
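Briefly, cells in 96-well plates were exposed to five compound concentrations for 48 h, and endpoints were estimated by linear interpolation. GI50 marks 50% less growth.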 Activity calls are given as the source filed them. Rule as the data show it: active = GI50 up to about 1.1 µM and inactive = higher.

How the values were obtained:
Test in all cases: NCI-60 cell line screen, 48 h
[1] = system: PC-3
[2] = system: SR
[3] = system: K562
[4] = system: OVCAR-8
[5] = system: HOP-92
[6] = system: MDA-MB-435
[7] = system: T47D
[8] = system: CCRF-CEM
[9] = system: 786-0
[10] = system: SK-MEL-5
[11] = system: SNB-19
[12] = system: NCI-H522
[13] = system: UACC-62
[14] = system: IGROV-1
[15] = system: SF-539
[16] = system: UO-31
[17] = system: NCI-H23
[18] = system: HCT-15
[19] = system: DU-145
[20] = system: MDA-MB-231
[21] = system: MCF7
[22] = system: HL-60
[23] = system: OVCAR-3
[24] = system: HOP-62
[25] = system: M14
[26] = system: SN12C
[27] = system: OVCAR-4
[28] = system: LOX IMVI
[29] = system: HT-29
[30] = system: MOLT-4
[31] = system: UACC-257
[32] = system: SF-295
[33] = system: SNB-75
[34] = system: OVCAR-5
[35] = system: TK-10
[36] = system: SF-268
[37] = system: HCC 2998
[38] = system: COLO 205
[39] = system: BT-549
[40] = system: MDA-N
[41] = system: EKVX
[42] = system: SK-OV-3
[43] = system: A549
[44] = system: NCI/ADR-RES
[45] = system: KM12
[46] = system: NCI-H460
[47] = system: HCT-116
[48] = system: SW-620
[49] = system: SK-MEL-28
[50] = system: U-251
[51] = system: A498
[52] = system: ACHN
[53] = system: RPMI-8226
[54] = system: Malme-3M
[55] = system: RXF 393
[56] = system: SK-MEL-2
[57] = system: NCI-H226

SMILES: CCNC1CC(C(C)(C)NCC)CC=C1C (stereo not given)
- GI50 [1]: > 100 µM (inactive)
- GI50 [2]: > 100 µM (inactive)
- GI50 [3]: > 100 µM (inactive)
- GI50 [4]: > 100 µM (inactive)
- GI50 [5]: > 100 µM (inactive)
- GI50 [6]: > 100 µM (inactive)
- GI50 [7]: > 100 µM (inactive)
- GI50 [8]: > 100 µM (inactive)
- GI50 [9]: > 100 µM (inactive)
- GI50 [10]: > 100 µM (inactive)
- GI50 [11]: > 100 µM (inactive)
- GI50 [12]: > 100 µM (inactive)
- GI50 [13]: > 100 µM (inactive)
- GI50 [14]: > 100 µM (inactive)
- GI50 [15]: > 100 µM (inactive)
- GI50 [16]: > 100 µM (inactive)
- GI50 [17]: > 100 µM (inactive)
- GI50 [18]: > 100 µM
- GI50 [19]: > 100 µM (inactive)
- GI50 [20]: > 100 µM (inactive)
- GI50 [21]: > 100 µM (inactive)
- GI50 [22]: > 100 µM (inactive)
- GI50 [23]: > 100 µM (inactive)
- GI50 [24]: > 100 µM (inactive)
- GI50 [25]: > 100 µM (inactive)
- GI50 [26]: > 100 µM (inactive)
- GI50 [27]: > 100 µM (inactive)
- GI50 [28]: > 100 µM (inactive)
- GI50 [29]: > 100 µM (inactive)
- GI50 [30]: > 100 µM (inactive)
- GI50 [31]: > 100 µM (inactive)
- GI50 [32]: > 100 µM (inactive)
- GI50 [33]: > 100 µM (inactive)
- GI50 [34]: > 100 µM (inactive)
- GI50 [35]: > 100 µM (inactive)
- GI50 [36]: > 100 µM (inactive)
- GI50 [37]: > 100 µM (inactive)
- GI50 [38]: > 100 µM (inactive)
- GI50 [39]: > 100 µM (inactive)
- GI50 [40]: > 100 µM (inactive)
- GI50 [41]: > 100 µM (inactive)
- GI50 [42]: > 100 µM (inactive)
- GI50 [43]: > 100 µM (inactive)
- GI50 [44]: > 100 µM (inactive)
- GI50 [45]: > 100 µM (inactive)
- GI50 [46]: > 100 µM (inactive)
- GI50 [47]: > 100 µM (inactive)
- GI50 [48]: > 100 µM (inactive)
- GI50 [49]: > 100 µM (inactive)
- GI50 [50]: > 100 µM (inactive)

SMILES: CC(C)(C)[C@H]1NC(=O)CN1C(=O)OCc1ccccc1
- GI50 [1]: 36.7 µM (inactive)
- GI50 [2]: 20 µM (inactive)
- GI50 [3]: 66.7 µM (inactive)
- GI50 [4]: > 100 µM (inactive)
- GI50 [5]: 5.12 µM (inactive)
- GI50 [6]: > 100 µM (inactive)
- GI50 [7]: 60.8 µM (inactive)
- GI50 [8]: > 100 µM (inactive)
- GI50 [9]: > 100 µM (inactive)
- GI50 [10]: 85.9 µM (inactive)
- GI50 [11]: > 100 µM (inactive)
- GI50 [12]: > 100 µM (inactive)
- GI50 [13]: > 100 µM (inactive)
- GI50 [14]: > 100 µM (inactive)
- GI50 [15]: > 100 µM (inactive)
- GI50 [16]: 9.35 µM (inactive)
- GI50 [17]: > 100 µM (inactive)
- GI50 [18]: > 100 µM
- GI50 [19]: > 100 µM (inactive)
- GI50 [20]: 35.5 µM (inactive)
- GI50 [51]: 10.7 µM (inactive)
- GI50 [21]: > 100 µM (inactive)
- GI50 [22]: > 100 µM (inactive)
- GI50 [24]: > 100 µM (inactive)
- GI50 [25]: > 100 µM (inactive)
- GI50 [26]: > 100 µM (inactive)
- GI50 [27]: > 100 µM (inactive)
- GI50 [28]: 43.6 µM (inactive)
- GI50 [52]: 82.2 µM (inactive)
- GI50 [29]: > 100 µM (inactive)
- GI50 [30]: > 100 µM (inactive)
- GI50 [31]: 98.9 µM (inactive)
- GI50 [32]: 45.6 µM (inactive)
- GI50 [33]: > 100 µM (inactive)
- GI50 [53]: 87.7 µM (inactive)
- GI50 [34]: > 100 µM (inactive)
- GI50 [35]: > 100 µM (inactive)
- GI50 [36]: 8.07 µM (inactive)
- GI50 [54]: > 100 µM (inactive)
- GI50 [37]: > 100 µM (inactive)
- GI50 [38]: > 100 µM (inactive)
- GI50 [39]: > 100 µM (inactive)
- GI50 [41]: > 100 µM (inactive)
- GI50 [42]: > 100 µM (inactive)
- GI50 [43]: > 100 µM (inactive)
- GI50 [55]: > 100 µM (inactive)
- GI50 [56]: > 100 µM (inactive)
- GI50 [44]: > 100 µM (inactive)
- GI50 [45]: > 100 µM (inactive)
- GI50 [46]: > 100 µM (inactive)
- GI50 [47]: 67.3 µM (inactive)
- GI50 [57]: > 100 µM (inactive)
- GI50 [48]: > 100 µM (inactive)
- GI50 [49]: > 100 µM (inactive)
- GI50 [50]: 82 µM (inactive)
